Laboratory results reported in patent US11590116B2 (THERAVANCE BIOPHARMA R&D IP, LLC, priority 2019, dated 2023).

What was measured:
[1] = target: T1, recombinant human ALK5 (TGF-βR1) protein (Homo sapiens, UniProt P36897); experiment: Biochemical ALK5 (TGF-βR1) assay to measure pKi (LANCE Ultra ULight kinase assay); settings: apparent pKi from pIC50 by Cheng-Prusoff, read-out: ALK5 pKi (converted)
T1 construct: purchased Life Technologies PR9075A
T1 sequence (P36897 34-503): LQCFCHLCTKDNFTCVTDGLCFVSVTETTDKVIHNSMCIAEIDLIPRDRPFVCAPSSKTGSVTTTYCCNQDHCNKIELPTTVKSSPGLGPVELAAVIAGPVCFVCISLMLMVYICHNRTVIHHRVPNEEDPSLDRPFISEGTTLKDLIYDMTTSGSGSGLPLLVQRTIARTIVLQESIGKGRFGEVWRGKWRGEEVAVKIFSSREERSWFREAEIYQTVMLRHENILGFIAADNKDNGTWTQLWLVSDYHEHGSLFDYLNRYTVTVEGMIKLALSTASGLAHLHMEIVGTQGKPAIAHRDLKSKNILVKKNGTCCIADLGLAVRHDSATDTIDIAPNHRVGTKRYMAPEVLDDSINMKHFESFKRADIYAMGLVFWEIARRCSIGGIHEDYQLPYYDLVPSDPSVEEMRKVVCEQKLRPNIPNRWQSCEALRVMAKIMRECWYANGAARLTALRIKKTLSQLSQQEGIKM
Method in brief: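 Compounds (10 μM to 25 pM) preincubated 60 minutes at room temperature with enzyme, then reaction run 60 minutes at 37° C with ATP added as 125 μM (5× final). Stopped with EDTA plus Eu-anti-phospho-Topoisomerase 2-alpha (Thr1342) antibody, TR-FRET read at 665 nm; pIC50 converted to pKi via Cheng-Prusoff.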

[2] = tested on: TGF-β-stimulated SMAD3 phosphorylation in BEAS-2B cells; experiment: Cellular ALK5 potency assay, inhibition of TGF-β stimulated pSMAD3 formation in BEAS-2B cells; assay type: cell-based; settings: Homo sapiens; inhibition of TGF-β stimulated pSMAD3 formation, BEAS-2B cells; read-out: BEAS2B pIC50 (converted)
Method in brief: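 BEAS-2B human lung epithelial cells, seeded overnight, were pre-treated with compound in HBSS/25 mM HEPES/1% BSA for 1 h at 37 °C, then stimulated with TGF-β (final 10 ng/mL) for 30 min. Lysates were assayed for pSMAD3 by AlphaLISA; pIC50 came from dose-dependent signal change versus TGF-β-stimulated untreated cells.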

Row | SMILES | Ki [1] [nM] | IC50 [2] [nM]
1 | Cc1cccc(-c2[nH]cnc2-c2ccc3ncc(NCCN4CCC5(CCNC5)C4)cc3c2)n1 (stereo not shown) [Compound 711, N-[2-(2,7-diazaspiro[4.4]nonan-2-yl)ethyl]-6-[5-(6-methyl-2-pyridyl)-1H-imidazol-4-yl]quinolin-3-amine] | 0.0398 to 0.316 | 200 to 1260
2 | Cc1cccc(-c2[nH]cnc2-c2ccc3ncc(NCCN4CCNC(C(=O)O)C4)cc3c2)n1 (stereo not shown) [Compound 712, 4-[2-[[6-[5-(6-methyl-2-pyridyl)-1H-imidazol-4-yl]-3-quinolyl]amino]ethyl]piperazine-2-carboxylic acid] | 0.0398 to 0.316 | 200 to 1260
3 | Cc1cccc(-c2[nH]cnc2-c2ccc3ncc(C(=O)OCCCCN4CCCC4)cc3c2)n1 [Compound 714, 4-pyrrolidin-1-ylbutyl 6-[5-(6-methyl-2-pyridyl)-1H-imidazol-4-yl]quinoline-3-carboxylate] | 0.0398 to 0.316 | 25.1 to 158
4 | Cc1cccc(-c2[nH]cnc2-c2ccc3ncc(NCCN4CC5(CC(N)C5)C4)cc3c2)n1 [Compound 715, N-[2-(6-amino-2-azaspiro[3.3]heptan-2-yl)ethyl]-6-[5-(6-methyl-2-pyridyl)-1H-imidazol-4-yl]quinolin-3-amine] | 0.0398 to 0.316 | 200 to 1260
5 | Cc1cccc(-c2[nH]cnc2-c2ccc3ncc(-c4ccc(C(=O)O[C@@H]5CCNC5)cc4)cc3c2)n1 [Compound 716, [(3R)-pyrrolidin-3-yl] 4-[6-[5-(6-methyl-2-pyridyl)-1H-imidazol-4-yl]-3-quinolyl]benzoate] | 0.0398 to 0.316 | 25.1 to 158
6 | COC(=O)[C@@H]1CN(CCNc2cnc3ccc(-c4nc[nH]c4-c4cccc(C)n4)cc3c2)CCN1 [Compound 717, methyl (2S)-4-[2-[[6-[5-(6-methyl-2-pyridyl)-1H-imidazol-4-yl]-3-quinolyl]amino]ethyl]piperazine-2-carboxylate] | 0.0398 to 0.316 | 25.1 to 158
7 | Cc1cccc(-c2[nH]cnc2-c2ccc3ncc(-c4ccc(C(=O)O[C@H]5CCNC5)cc4)cc3c2)n1 [Compound 718, [(3S)-pyrrolidin-3-yl]4-[6-[5-(6-methyl-2-pyridyl)-1H-imidazol-4-yl]-3-quinolyl]benzoate] | 0.0398 to 0.316 | 25.1 to 158
8 | Cc1cccc(-c2[nH]cnc2-c2ccc3ncc(-c4cncc(C(=O)O[C@H]5CCNC5)c4)cc3c2)n1 [Compound 719, [(3S)-pyrrolidin-3-yl] 5-[6-[5-(6-methyl-2-pyridyl)-1H-imidazol-4-yl]-3-quinolyl]pyridine-3-carboxylate] | 0.0398 to 0.316 | 200 to 1260
9 | Cc1cccc(-c2[nH]cnc2-c2ccc3ncc(-c4cnc5c(c4)CCNC5)cc3c2)n1 [Compound 721, 3-[6-[5-(6-methyl-2-pyridyl)-1H-imidazol-4-yl]-3-quinolyl]-5,6,7,8-tetrahydro-1,7-naphthyridine] | 0.0398 to 0.316 | 25.1 to 158
10 | Cc1cccc(-c2[nH]cnc2-c2ccc3ncc(-c4ccc(C(=O)O[C@H]5CCN(C)C5)nc4)cc3c2)n1 [Compound 722, [(3S)-1-methylpyrrolidin-3-yl] 5-[6-[5-(6-methyl-2-pyridyl)-1H-imidazol-4-yl]-3-quinolyl]pyridine-2-carboxylate] | 0.0398 to 0.316 | < 20
11 | COC(=O)[C@H]1CNCCN1CCNc1cnc2ccc(-c3nc[nH]c3-c3cccc(C)n3)cc2c1 [Compound 723, methyl (2R)-1-[2-[[6-[5-(6-methyl-2-pyridyl)-1H-imidazol-4-yl]-3-quinolyl]amino]ethyl]piperazine-2-carboxylate] | 0.0398 to 0.316 | 200 to 1260
12 | Cc1cccc(-c2[nH]cnc2-c2ccc3ncc(C(=O)O[C@H]4CCN(C)C4)cc3c2)n1 [Compound 724, [(3S)-1-methylpyrrolidin-3-yl] 6-[5-(6-methyl-2-pyridyl)-1H-imidazol-4-yl]quinoline-3-carboxylate] | 0.398 to 3.16 | 25.1 to 158
13 | Cc1cccc(-c2[nH]cnc2-c2ccc3ncc(-c4cncc(C(=O)O[C@@H]5CCNC5)c4)cc3c2)n1 [Compound 725, [(3R)-pyrrolidin-3-yl] 5-[6-[5-(6-methyl-2-pyridyl)-1H-imidazol-4-yl]-3-quinolyl]pyridine-3-carboxylate] | 0.0398 to 0.316 | 25.1 to 158
14 | Cc1cccc(-c2[nH]cnc2-c2ccc3ncc(-c4ccc5c(c4)C(N)CC5)cc3c2)n1 (stereo not shown) [Compound 726, 6-[6-[5-(6-methyl-2-pyridyl)-1H-imidazol-4-yl]-3-quinolyl]indan-1-amine] | < 0.0316 | 25.1 to 158
15 | Cc1cccc(-c2[nH]cnc2-c2ccc3ncc(-c4nc5c(s4)CCNC5)cc3c2)n1 [Compound 727, 2-(6-(5-(6-methylpyridin-2-yl)-1H-imidazol-4-yl)quinolin-3-yl)-4,5,6,7-tetrahydrothiazolo[4,5-c]pyridine] | < 0.0316 | < 20
16 | COC(=O)[C@@H]1CCCN(CCNc2cnc3ccc(-c4nc[nH]c4-c4cccc(C)n4)cc3c2)C1 [Compound 728, methyl (3R)-1-[2-[[6-[5-(6-methyl-2-pyridyl)-1H-imidazol-4-yl]-3-quinolyl]amino]ethyl]piperidine-3-carboxylate] | 0.0398 to 0.316 | 25.1 to 158
17 | COC(=O)[C@@H]1CCN(CCNc2cnc3ccc(-c4nc[nH]c4-c4cccc(C)n4)cc3c2)C1 [Compound 729, methyl (3R)-1-[2-[[6-[5-(6-methyl-2-pyridyl)-1H-imidazol-4-yl]-3-quinolyl]amino]ethyl]pyrrolidine-3-carboxylate] | 0.0398 to 0.316 | 25.1 to 158
18 | Cc1cccc(-c2[nH]cnc2-c2ccc3ncc(NCCN4CCC[C@@H](N)C4)cc3c2)n1 [Compound 730, N-[2-[(3R)-3-amino-1-piperidyl]ethyl]-6-[5-(6-methyl-2-pyridyl)-1H-imidazol-4-yl]quinolin-3-amine] | 0.0398 to 0.316 | 25.1 to 158
19 | CC(=O)Oc1cnc2ccc(-c3cn[nH]c3-c3cccc(C)n3)cc2c1 [Compound 731, [6-[5-(6-methyl-2-pyridyl)-1H-pyrazol-4-yl]-3-quinolyl]acetate] | 0.0398 to 0.316 | < 20
20 | COC(=O)c1cnc2ccc(-c3nc[nH]c3-c3cccc(C)n3)cc2c1 [Compound 732, methyl 6-[5-(6-methyl-2-pyridyl)-1H-imidazol-4-yl]quinoline-3-carboxylate] | 0.0398 to 0.316 | < 20
21 | Cc1cccc(-c2[nH]cnc2-c2ccc3ncc(NCCN4CC5(CCCNC5)C4)cc3c2)n1 [Compound 733, N-[2-(2,8-diazaspiro[3.5]nonan-2-yl)ethyl]-6-[5-(6-methyl-2-pyridyl)-1H-imidazol-4-yl]quinolin-3-amine] | 0.0398 to 0.316 | 200 to 1260
22 | Cc1cccc(-c2[nH]cnc2-c2ccc3ncc(-c4cnc5c(c4)CCC5N)cc3c2)n1 (stereo not shown) [Compound 734, 3-[6-[5-(6-methyl-2-pyridyl)-1H-imidazol-4-yl]-3-quinolyl]-6,7-dihydro-5H-cyclopenta[b]pyridin-7-amine] | 0.0398 to 0.316 | 25.1 to 158
23 | Cc1cccc(-c2[nH]cnc2-c2ccc3ncc(NCCN4CC5(CCNCC5)C4)cc3c2)n1 [Compound 735, N-[2-(2,7-diazaspiro[3.5]nonan-2-yl)ethyl]-6-[5-(6-methyl-2-pyridyl)-1H-imidazol-4-yl]quinolin-3-amine] | 0.0398 to 0.316 | 200 to 1260
24 | Cc1cccc(-c2[nH]cnc2-c2ccc3ncc(-c4cccc(C(=O)O[C@@H]5CCNC5)c4)cc3c2)n1 [Compound 736, [(3R)-pyrrolidin-3-yl] 3-[6-[5-(6-methyl-2-pyridyl)-1H-imidazol-4-yl]-3-quinolyl]benzoate] | 0.0398 to 0.316 | 25.1 to 158
25 | Cc1cccc(-c2[nH]cnc2-c2ccc3ncc(C(=O)OCCN4CCCC4)cc3c2)n1 [Compound 737, 2-pyrrolidin-1-ylethyl 6-[5-(6-methyl-2-pyridyl)-1H-imidazol-4-yl]quinoline-3-carboxylate] | 0.398 to 3.16 | 25.1 to 158
26 | Cc1cccc(-c2[nH]cnc2-c2ccc3ncc(C(=O)OCCCN4CCCC4)cc3c2)n1 [Compound 738, 3-pyrrolidin-1-ylpropyl 6-[5-(6-methyl-2-pyridyl)-1H-imidazol-4-yl]quinoline-3-carboxylate] | 0.0398 to 0.316 | 25.1 to 158
27 | Cc1cccc(-c2[nH]cnc2-c2ccc3ncc(C(=O)OC4CNC4)cc3c2)n1 [Compound 739, azetidin-3-yl 6-[5-(6-methyl-2-pyridyl)-1H-imidazol-4-yl]quinoline-3-carboxylate] | 0.0398 to 0.316 | 25.1 to 158
28 | Cc1cccc(-c2[nH]cnc2-c2ccc3ncc(C(=O)OC4CCNCC4)cc3c2)n1 [Compound 740, piperidin-4-yl 6-(5-(6-methylpyridin-2-yl)-1H-imidazol-4-yl)quinoline-3-carboxylate] | 0.0398 to 0.316 | 25.1 to 158
29 | Cc1cccc(-c2[nH]cnc2-c2ccc3ncc(C(=O)OCC4CCNCC4)cc3c2)n1 [Compound 741, 4-piperidylmethyl 6-[5-(6-methyl-2-pyridyl)-1H-imidazol-4-yl]quinoline-3-carboxylate] | 0.0398 to 0.316 | 25.1 to 158
